Assay results: PMC5836727 (ACS chemical biology, 2017)

Legend:
firefly luciferase [1] = target: T1, firefly luciferase (Photinus pyralis, UniProt P08659); test: bioluminescence of transfected live CHO cells; assay type: cell-based; conditions: 100 uM in HBSS
CG6178 = target: T2, CG6178 (Drosophila melanogaster, UniProt Q9VCC6); test: bioluminescence; assay type: biochemical; conditions: ATP, MgSO4, pH 7.4; 20 nM enzyme, 250 uM luciferin
T2 sequence (Q9VCC6 1-544): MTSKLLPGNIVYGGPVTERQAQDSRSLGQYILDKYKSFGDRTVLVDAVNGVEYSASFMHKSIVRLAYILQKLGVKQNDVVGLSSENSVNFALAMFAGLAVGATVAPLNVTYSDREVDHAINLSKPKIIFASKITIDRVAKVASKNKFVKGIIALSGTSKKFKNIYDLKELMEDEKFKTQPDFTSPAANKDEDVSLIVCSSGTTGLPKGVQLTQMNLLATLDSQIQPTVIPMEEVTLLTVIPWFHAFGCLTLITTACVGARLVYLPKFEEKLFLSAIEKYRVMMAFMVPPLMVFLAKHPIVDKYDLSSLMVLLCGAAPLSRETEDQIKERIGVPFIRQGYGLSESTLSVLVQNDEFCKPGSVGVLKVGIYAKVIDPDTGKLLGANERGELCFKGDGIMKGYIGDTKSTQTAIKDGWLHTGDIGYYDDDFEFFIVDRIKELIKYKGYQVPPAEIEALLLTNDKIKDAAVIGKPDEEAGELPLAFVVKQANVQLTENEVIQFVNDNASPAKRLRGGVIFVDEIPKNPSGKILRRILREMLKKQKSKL

firefly luciferase [2] = target: T1, firefly luciferase; test: bioluminescence burst kinetics after rapid injection; assay type: biochemical; conditions: 100 nM enzyme, 100 uM substrate

T1 sequence (P08659 whole entry): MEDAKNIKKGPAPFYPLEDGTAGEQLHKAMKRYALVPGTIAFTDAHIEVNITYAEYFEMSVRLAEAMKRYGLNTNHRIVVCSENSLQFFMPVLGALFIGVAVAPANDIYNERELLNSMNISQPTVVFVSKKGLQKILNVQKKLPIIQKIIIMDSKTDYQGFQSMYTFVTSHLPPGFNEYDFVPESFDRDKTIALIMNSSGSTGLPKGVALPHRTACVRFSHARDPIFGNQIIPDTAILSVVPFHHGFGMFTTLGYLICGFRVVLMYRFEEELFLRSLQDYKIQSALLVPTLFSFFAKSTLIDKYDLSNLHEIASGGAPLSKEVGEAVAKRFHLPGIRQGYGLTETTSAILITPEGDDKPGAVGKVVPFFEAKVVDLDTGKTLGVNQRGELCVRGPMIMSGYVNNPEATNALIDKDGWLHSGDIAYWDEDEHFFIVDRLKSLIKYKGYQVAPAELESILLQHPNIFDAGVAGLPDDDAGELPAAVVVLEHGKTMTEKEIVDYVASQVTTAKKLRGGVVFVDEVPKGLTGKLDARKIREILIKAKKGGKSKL

O=C(O)[C@H]1CSC(/C=C/c2ccc(N3CCCC3)cc2)=N1 [compound 5, (S,E)-2-(4-(pyrrolidin-1-yl)styryl)-4,5-dihydrothiazole-4-carboxylic acid]
bioluminescence of transfected live CHO cells (firefly luciferase [1]): all three are substrates for firefly luciferase and AbLL

CN1CCc2cc3nc(C4=N[C@@H](C(=O)O)CS4)sc3cc21 [CycLuc2]
bioluminescence (photon flux, IVIS-100; burst kinetics) (CG6178): we found that CG6178 is capable of luciferase activity when treated with the synthetic luciferin CycLuc2

O=C(O)[C@H]1CSC(c2nc3ccc(O)cc3s2)=N1 [D-luciferin]
bioluminescence burst kinetics after rapid injection (firefly luciferase [2]): more pronounced with the tighter-binding synthetic luciferins than with D-luciferin
